Where two headings read alike, the source gives them in different places.
Legend:
231-BR cells [1] = test: 48-well Boyden chamber chemotaxis (motility) assay; assay type: cell-based, human; details: 24 hours drug treatment, 4 hours migration, SAHA 5 μM, depsipeptide 10 ng/mL, VPA 10 mM, TSA 100 ng/mL, ± standard deviation; for Motility Data, mean number of cells that migrate per well, 0.5% FCS: 0.5% FCS chemoattractant; for Motility Data, mean number of cells that migrate per well, Control: Control (no FCS chemoattractant)
Protocol: 231-BR Cells are used as described in Example 2. A 48-well Boyden chemotaxis chamber is used. Polycarbonate PVP-free Nucleopore filters (8 μm pore size) are coated with 0.01% collagen (BD Bioscience). […] Drug concentrations used are as described in Example 2. 231-BR cells, after 24 hours of vorinostat, other drug treatment, or control are added to the top chamber in DMEM with 1 mg/ml BSA at a concentration of 2×10^6 cells/ml. Chambers are incubated for 4 hours in a 37° C. incubator with 5% CO2. After chambers are disassembled, filters are fixed and stained with reagents from a Diff-Quik® Kit (Fischer Scientific). Cells that migrate through the Boyden chamber are counted using a light microscope. Representative areas are counted to determine the number of cells that have migrated for each well. Data in Table 5 are shown as mean number of cells±standard deviation that migrate per well. Analysis of variance (ANOVA) is used to assess in vitro functions of vehicle treated versus vorinostat treated cells. P values can be two-tailed. Tests can be performed using GraphPad InStat version 3.0 software.

231-BR cells [2] = test: MTT proliferation / colonization assay of 231-BR cells; assay type: cell-based, human
Protocol: The prepared cells are plated at a density of 15,000 cells/well in a 96 well plate and incubated for 3 hours to permit attachment. Cells are then washed with PBS, and media containing either 0.1% or 1% FBS is added to the cells. […] After a 72-hour incubation, 0.5 mg/mL MTT (Sigma, St. Louis, Mo.) is added and plates are incubated for 2 hours. Media is then aspirated, and MTT dissolved in DMSO for 30 minutes, after which the absorbance is read at a wavelength of 570 nm. […] Data in Table 4 is shown as percent of colonies formed±standard deviation compared to untreated controls. Results are representative of three independent experiments in quintuplicate. Analysis of variance (ANOVA) is used to assess in vitro functions of vehicle treated versus vorinostat treated cells. P values can be two-tailed. Tests can be performed using GraphPad InStat version 3.0 software.

[3] = test system: acetyl Histone H3, acetyl histone H4, p21; test: Western blot of 231-BR cell lysates after HDI treatment; assay type: cell-based, human; details: 231-BR cells; depsipeptide 10 ng/mL or SAHA 5 μM; 0, 8, 24, 48 hours
Protocol: All cell lines are deemed free of mycoplasma and human pathogens and test negative in mouse antibody production (MAP) tests. […] Drug solution is added once at the beginning and left on the cells for the indicated duration (0, 8, 24, and 48 hours). Controls are performed in the same way with the same amount of vehicle solution for each drug, but without the drug. The vehicle can be DMSO. Cells are lysed according to standard procedures and Western blotting is performed. Primary antibodies specific to the targeted proteins are used including antibodies specific to acetyl Histone H3, acetyl histone H4, p21, and α-tubulin. Horseradish peroxidase-conjugated secondary antibodies purchased from Santa Cruz Biotechnology (Santa Cruz, Calif.) are used at dilutions of 1:5000. Proteins are visualized using enhanced chemilluminescence (Cell Signaling) and autoradiography. […] As histones H3 and H4 become hyperacetylated, protein levels of the cyclin-dependent kinase inhibitor p21 increase. Those changes indicate HDAC inhibition.

[4] = test system: MDA-MB-231-BR cells brain metastases; test: Brain metastasis model, intracardiac MDA-MB-231-BR cells in nude mice (Example 5); assay type: in vivo, Balb/c nude mice; set-up: key to Mean Large Mets: mean no. of large metastases (>50 microns^2) per mouse; key to Mean Micromets: mean no. of metastases in 10 step sections of one hemisphere; details: for Mean Large Mets: large >50 microns^2
Protocol: Cells are prepared as described in Example 2 with additional preparation as follows. The retroviral vector pLEGFP-C1 (BD Biosciences, San Jose, Calif.) is transfected into murine fibroblast PT67 packaging cells using Effectene reagent according to the manufacturer's protocol (Qiagen, Germantown, Md.). After 24 hours, enhanced green fluorescent protein (EGFP)-expressing cells are selected in the presence of 1 mg/mL G418 (Invitrogen, Carlsbad, Calif.), and colonies are expanded. Virus is harvested and filtered through a 0.45 um Millex-HA syringe-driven filter (Millipore, Billerica, Mass.) and 231-BR cells are infected with retrovirus for 6 hours. The following day, 231-BR cells are selected in the presence of 0.8 mg/mL G418, and EGFP expression in 95-99% of the cells is confirmed by fluorescent microscopy.
All animal experiments are conducted under an approved Animal Use Agreement with the NCI. Under isoflurane anesthesia, 20 female Balb/c nude mice (Charles River Laboratories, Frederick, Md.) 5-7 weeks old are inoculated with 500,000 (Experiment 1) or 100,000 (Experiment 2) MDA-MB-231-BR cells in 0.1 mL PBS in the left ventricle of the heart. Mice are monitored daily for signs of ill health. Three days after tumor cell inoculation mice are randomized to treatment groups and treatment is started. […] After 21 days of treatment, mice are euthanized under CO2 anesthesia and brains are excised for imaging. EGFP is detected in whole brains by the Maestro 420 In Vivo Spectral Imaging System (Cambridge Research and Instrumentation, Woburn, Mass.), using software (e.g., Nuance Technology, Burlington, Mass.) to distinguish or unmix images of fluorescence from multiple sources. After imaging, mouse brains are bisected along the sagittal plane and the right hemisphere of the brain is fixed in 4% paraformaldehyde for 24-48 hours at 4° C., then transferred to 20% sucrose overnight at 4° C. and frozen (for EGFP detection/histology). The left hemisphere is forallin-fixed and paraffin embedded for immunohistochemistry. Ten micron brain sections are serially cut and processed for either EGFP microscopy or histology. To detect EGFP, slides are dried at room temperature and 25 uL Vectashield HardSet Mounting Media with DAPI was added (Vector Laboratories, Burlingame, Calif.). Images are captured on a Zeiss Axioskop 2 microscope (Thornwood, N.Y.) using OpenLab software (Improvision, Lexington, Mass.). For staining with hematoxylin and eosin, a standard protocol is followed. Ten serial sections every 300 microns through the brain are analyzed using a 5× objective on a Zeiss microscope, containing an ocular grid with squares of 0.8 mm^2.
Every micro- or large (>50 microns^2) metastasis in each section is tabulated. Data are representative of two experiments conducted. Wilcoxon rank sum test is used to compare the number of total metastases and the number of large metastases in vehicle treated versus vorinostat treated mice. Tests can be performed using GraphPad InStat version 3.0 software. “Mean Micromets” in Tables 6 and 7 refer to the mean number of metastases counted in 10 step sections from one hemisphere of the brain. “Mean Large Mets” in Tables 6 and 7 refer to the size of metastases determined by a 16 mm^2 ocular grid. Large metastases are greater than 50 microns^2.

[5] = test system: MDA-MB-231BR cells brain metastases; test: Brain metastasis model, timing of SAHA administration (Example 6); assay type: in vivo, nude mice; details: for Large Metastases, Mean number per section: vehicle 7.65; for Micrometastases, Mean number per section: vehicle 170
Protocol: As described in Example 5, 175,000 MDA-MB-231BR cells in 0.1 mL PBS are injected into the left cardiac ventricle of the heart of nude mice. […] On day [X], mice are euthanized under CO2 anesthesia and brains are excised for imaging as described in Example 5.
Micro- and large (>50 microns^2) metastases are tabulated. The data set forth in Table 8 are representative of two experiments.

[6] = mouse, in vivo
Protocol: All animal experiments are conducted under an approved Animal Use Agreement with the NCI. Under isoflurane anesthesia, 20 female Balb/c nude mice (Charles River Laboratories, Frederick, Md.) 5-7 weeks old are inoculated with 500,000 (Experiment 1) or 100,000 (Experiment 2) MDA-MB-231-BR cells in 0.1 mL PBS in the left ventricle of the heart. Mice are monitored daily for signs of ill health. Three days after tumor cell inoculation mice are randomized to treatment groups and treatment is started. […]. After 21 days of treatment, mice are euthanized under CO2 anesthesia and brains are excised for imaging. EGFP is detected in whole brains by the Maestro 420 In Vivo Spectral Imaging System (Cambridge Research and Instrumentation, Woburn, Mass.), using software (e.g., Nuance Technology, Burlington, Mass.) to distinguish or unmix images of fluorescence from multiple sources. […] Ten serial sections every 300 microns through the brain are analyzed using a 5× objective on a Zeiss microscope, containing an ocular grid with squares of 0.8 mm^2.
. […] “Mean Micromets” in Tables 6 and 7 refer to the mean number of metastases counted in 10 step sections from one hemisphere of the brain. “Mean Large Mets” in Tables 6 and 7 refer to the size of metastases determined by a 16 mm^2 ocular grid. […]

[7] = 231-BR cells, 72-hour incubation; SAHA 5 μM, depsipeptide 10 ng/mL, VPA 10 mM, TSA 100 ng/mL; ± standard deviation
[8] = 150 mg/kg SAHA IP once daily starting on day 3 post-injection until day 21
[9] = 150 mg/kg SAHA IP once daily starting on day 7 post-injection until day 21
[10] = 150 mg/kg SAHA IP once daily starting on day 14 post-injection until day 21

## C/C=C1\NC(=O)[C@H]2CSSCC/C=C/[C@H](CC(=O)N[C@H](C(C)C)C(=O)N2)OC(=O)[C@H](C(C)C)NC1=O [Depsipeptide]
231-BR cells [1]
  Motility Data, mean number of cells that migrate per well, 0.5% FCS: 678 ± 33
  Motility Data, mean number of cells that migrate per well, Control: 129 ± 23
231-BR cells [2]; [7]
  Colonization Data, % Control: 10 ± 2.5 % Control
231-BR cells [2]; 231BR cells
  dose at which noticeable inhibition occurs: ≥ 0.001 µg/mL
231-BR cells [2]; Homo sapiens, read-out: IC50 (growth inhibition, absorbance at 570 nm)
  IC50: 1.5 µg/mL
[3]
  acetylation of histones H3 and H4 (Western blot): hyperacetylated
  protein levels of the cyclin-dependent kinase inhibitor p21 (Western blot): increase

## O=C(CCCCCCC(=O)Nc1ccccc1)NO [SAHA, N-Hydroxy-N′-phenyloctanediamide]
[4]; Experiment 1 (500,000 cells), 100 mg/kg SAHA IP once daily 21 days, vehicle 205.5
  Mean Micromets: 140.4
[4]; Experiment 1 (500,000 cells), 150 mg/kg SAHA IP once daily 21 days (lowered from 200 mg/kg), vehicle 205.5
  Mean Micromets: 151.8
[4]; Experiment 1, 100 mg/kg SAHA IP once daily 21 days, vehicle 6.8
  Mean Large Mets: 2.9
[4]; Experiment 1, 150 mg/kg SAHA IP once daily 21 days (lowered from 200 mg/kg), vehicle 6.8
  Mean Large Mets: 3.5
[4]; Experiment 2 (100,000 cells), 100 mg/kg SAHA IP once daily 21 days, vehicle 72.5
  Mean Micromets: 78.3
[4]; Experiment 2 (100,000 cells), 150 mg/kg SAHA IP once daily 21 days, vehicle 72.5
  Mean Micromets: 66.6
[4]; Experiment 2, 100 mg/kg SAHA IP once daily 21 days, vehicle 3.3
  Mean Large Mets: 4.4
[4]; Experiment 2, 150 mg/kg SAHA IP once daily 21 days, vehicle 3.3
  Mean Large Mets: 1.5
[4]; in vivo, mice, IP SAHA vs vehicle
  number of large (>50 micron^2) brain metastases, in words: reduces the number
231-BR cells [1]
  Motility Data, mean number of cells that migrate per well, 0.5% FCS: 756 ± 56
  Motility Data, mean number of cells that migrate per well, Control: 67 ± 6
231-BR cells [2]; [7]
  Colonization Data, % Control: 47 ± 1.9 % Control
231-BR cells [2]; Homo sapiens; read-out: IC50 (growth inhibition, absorbance at 570 nm)
  IC50: 12.6 µM
[5]; [8]
  Large Metastases, Mean number per section: 2.89
  Micrometastases, Mean number per section: 122
[5]; [9]
  Large Metastases, Mean number per section: 4.94
  Micrometastases, Mean number per section: 151
[5]; [10]
  Large Metastases, Mean number per section: 5.96
  Micrometastases, Mean number per section: 171
[5]; 150 mg/kg SAHA starting on day 3 post-injection, vs vehicle, P<0.001
  reduction in large metastases: 57%
[5]; 150 mg/kg SAHA starting on day 3 post-injection, vs vehicle, P=0.017
  reduction in micrometastases: 28%
[5]; 150 mg/kg SAHA starting on day 7 post-injection, vs vehicle, P=0.008
  reduction (large metastases): 34%
[5]; 150 mg/kg SAHA starting on day 14 post-injection, vs vehicle, not statistically significant
  reduction in large metastases: 22%
[6]
  toxicity of the higher dosage: toxicity
[3]
  acetylation of histones H3 and H4 (Western blot): hyperacetylated

## CCCC(CCC)C(=O)O [Valporic Acid, valproic acid]
231-BR cells [1]
  Motility Data, mean number of cells that migrate per well, 0.5% FCS: 755 ± 37
  Motility Data, mean number of cells that migrate per well, Control: 242 ± 55
231-BR cells [2]; [7]
  Colonization Data, % Control: 46 ± 5.3 % Control

## CC(/C=C/C(=O)NO)=C\[C@@H](C)C(=O)c1ccc(N(C)C)cc1 [Trichostatin (TSA), trichostatin]
231-BR cells [1]
  Motility Data, mean number of cells that migrate per well, 0.5% FCS: 785 ± 17
  Motility Data, mean number of cells that migrate per well, Control: 108 ± 13
231-BR cells [2]; [7]
  Colonization Data, % Control: 30 ± 3.4 % Control
